In general, IC50 refers to the midpoint of a concentration-inhibition curve.

SMILES strings stand for the structures.

Experimental findings from patent US20250019357A1, “[…] MORPHIC FORMS AND MIXTURES FOR THE TREATMENT OF MENTAL DISORDERS OR MENTAL ENHANCEMENT” (TACTOGEN INC, priority 2021, published 2025) are described below.

For experiment [1], the target named is T1, SERT (Rattus norvegicus (Rat), UniProt P31652). The experiment is described as follows: In vitro rat synaptosome serotonin uptake inhibition assay (Examples 9, 58). The class given is biochemical. The following applies: rat synaptosomes. The source says: FIG. 7A is a graph showing results from an in vitro rat synaptosome serotonin uptake inhibition assay. […] Details and procedural information for this assay are described in Example 9. The x-axis is the log [dose] concentration measured in molar and the y-axis is the [^3H]-labeled 5-HT reuptake measured in percent.
FIG. 176 is a graph showing results from an in vitro rat synaptosome serotonin uptake inhibition assay. […] Details and procedural information for this assay are described in Example 58. The x-axis the log [dose] concentration is measured in Molar units and the y-axis is the [^3H]-labeled 5-HT reuptake measured in percent of maximum produced by the comparison releaser.

Experiment [2] has as its target T1, SERT. The experiment is described as follows: In vitro rat synaptosome serotonin release (efflux) assay (Examples 9, 58). The class given is biochemical. The conditions noted are these: rat synaptosomes. The source says:
FIG. 7B is a graph showing results from an in vitro rat synaptosome serotonin release assay. […] Details and procedural information for this assay are described in Example 9. The x-axis is the log [dose] concentration measured in molar and the y-axis is the [^3H]-labeled 5-HT release measured in percent.
FIG. 177 is a graph showing results from an in vitro rat synaptosome serotonin release assay. […] Details and procedural information for this assay are described in Example 58. The x-axis the log [dose] concentration measured in molar and the y-axis is the [^3H]-labeled 5-HT release measured in percent.

Experiment [3] has as its target 5-HT2B (Homo sapiens (Human), UniProt P41595). The experiment is described as follows: 5-HT2B antagonist assay (DiscoveRx Calcium NWPLUS, FLIPR). The class given is cell-based. On the procedure:
5-HT2A and 5-HT2B Agonist and Antagonist Assays
The DiscoveRx Calcium NWPLUS Assay was used for detection of changes in intracellular calcium as signaled by an increase of dye fluorescence in cells expressing 5-HT2A receptors. Signal was measured on a fluorescent plate reader equipped with fluidic handling capable of detecting rapid changes in fluorescence upon compound stimulation.
To conduct the assay, cell lines were expanded from freezer stocks according to standard procedures. Cells (10,000cells/well) were seeded in a total volume of 50 μL ([…]) into black-walled, clear-bottom, Poly-D-lysine coated 384-well microplates and incubated at 37-C for the appropriate time prior to testing. DMSO concentration for all readouts was <0.2%. […]
Compound agonist activity was measured on a FLIPR Tetra. Calcium mobilization was monitored for 2 minutes with a 5 second baseline read. FLIPR read-Area under the curve was calculated for the two minute read. Compound activity was analyzed using CBIS data analysis suite (ChemInnovation, CA). Percentage activity was calculated as 100%×(mean RFU of test sample−mean RFU of vehicle control)/(mean MAX RFU control ligand −mean RFU of vehicle control). For antagonist mode assays, percentage inhibition was calculated as 100%×(1−(mean RFU of test sample−mean RFU of vehicle control)/(mean RFU of EC80 control−mean RFU of vehicle control)). […]

Sequence of 5-HT2B (P41595 whole entry): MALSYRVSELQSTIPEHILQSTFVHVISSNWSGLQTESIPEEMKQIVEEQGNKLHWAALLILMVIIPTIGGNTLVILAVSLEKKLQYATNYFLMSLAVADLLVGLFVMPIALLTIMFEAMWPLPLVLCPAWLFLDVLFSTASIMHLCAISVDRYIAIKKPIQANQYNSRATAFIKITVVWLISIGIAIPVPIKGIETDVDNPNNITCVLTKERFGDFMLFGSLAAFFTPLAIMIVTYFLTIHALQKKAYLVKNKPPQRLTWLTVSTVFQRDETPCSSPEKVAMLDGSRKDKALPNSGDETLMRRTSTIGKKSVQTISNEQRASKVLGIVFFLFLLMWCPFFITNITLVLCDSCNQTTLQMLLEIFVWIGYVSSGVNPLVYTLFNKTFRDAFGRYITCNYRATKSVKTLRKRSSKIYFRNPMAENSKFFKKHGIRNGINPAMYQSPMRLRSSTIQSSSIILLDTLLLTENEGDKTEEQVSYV

With `CCC(Cc1ccc2ccoc2c1)NC` (racemic) [RS-6-MBPB], the “[3H]-labeled 5-HT reuptake (serotonin uptake inhibition)” value in experiment [1] is “rapidly increases extracellular serotonin by inhibiting reuptake”. Moreover, the “[3H]-labeled 5-HT release” value in experiment [2] is listed as “rapidly increases extracellular serotonin by stimulating release”. For the same compound, the IC50 in experiment [3] turned out to be 3.08 µM.
